Values quoted from earlier work as cited in patent US20080268045A1, “SUSTAINED RELEASE METHOTREXATE FORMULATIONS AND METHODS OF USE THEREOF” (Proprius Pharmaceuticals, Inc., priority 2006, published 2008).

Bioavailability of orally dosed methotrexate (higher dose strength (10-15 mg/dose)): 30-40% | Bioavailability of orally administered methotrexate (lower dose strength): ≤ 60%
SMILES: CN(Cc1cnc2nc(N)nc(N)c2n1)c1ccc(C(=O)N[C@@H](CCC(=O)O)C(=O)O)cc1 [methotrexate]
